Measurements taken from US6875422B2, “Oral treatment/care agent” (priority 2000, dated 2005).

Settings: used alone
Experimental: Here, a complete cure was determined by comparing the configuration and properties (hardness and color, in clinical practice) of the periodontium, mobility of the teeth, depth of pockets, hemorrhaging, pus discharge, effusion, bacterial flora within the pocket and the like, against those of a normal person (excepting any dramatic periodontial regeneration such as dramatic bone growth relative to the normal person through this medication alone).

Structure (SMILES): C[C@@H]1[C@H](O)[C@@H](C)/C=C/C=C/C=C/C=C/C=C/C=C/C=C/[C@H](O[C@@H]2O[C@H](C)[C@@H](O)[C@H](N)[C@@H]2O)C[C@@H]2O[C@](O)(C[C@@H](O)C[C@@H](O)[C@H](O)CC[C@@H](O)C[C@@H](O)CC(=O)O[C@H]1C)C[C@H](O)[C@H]2C(=O)O [amphotericin, amphotericin B]
- occurrences on use alone: annual-term occurrences
